Source: paper PMC11969024, “Development of chemokine network inhibitors using combinatorial saturation mutagenesis” (Communications Biology, 2025)

Columns and labels:
J:CXCR1 cells = assay: Chemokine dose-response, J:CXCR1 cell migration; type: cell-based, human; conditions: mean of 7 replicates
Procedure: (§1) Cell lines were confirmed mycoplasma free by monthly testing using a MycoAlert^TM kit (LT07-118, Lonza) following the manufacturer’s instructions. THP1 cells: THP1 cells (ECACC 88081201, a human monocyte leukemia cell line[51]) were obtained from ECACC and were cultured in T175 flasks at 0.3-1 × 10^6 cells/mL in Roswell Park Memorial Institute (RPMI) 1640 medium (R0883, Sigma) with 10% FBS (F9665, Sigma) and 5mM L-glutamine (G7513, Sigma), 37 °C, 5% CO2. J:CXCR1 cells: The J:CXCR1 cell line was cultured in the same manner as THP1 cells at 0.15-1 × 10^6 cells per mL[37]. Activated T-cells: T-cells were isolated, activated and expanded as follows. […] The final pellet was resuspended in 1 mL of MACS buffer per 5 mL of initial blood volume and counted using cell size FSC-H/SSC-H parameters with gate settings previously defined by immunostaining (see below). […]
(§2) Cell counts were determined using an ATTUNE NxT Flow Cytometer with Cytkick autosampler (ThermoFisher), based on cell size parameters FSC-H/SSC-H, with previously defined gate settings. FSC-H/SSC-H gate settings for primary white blood cells from buffy coats were determined using flow cytometry to establish the granulocyte, monocyte and lymphocyte populations (Supplementary Fig. 13). […]

Lymphocytes = assay: Buffy coat lymphocyte migration induced by disease chemokine pools, inhibition by peptide; type: cell-based, human; conditions: peptide 10 uM; pool at EC50; compared to HD2SCR
Source text: (§3) To assess the potential of combinatorially mutated peptides as therapeutic agents in inflammatory disease, we explored their efficacy against pools of chemokines known to be produced in diseased tissues. We developed the chemokine pool approach to represent the naturally occurring mix of chemokines present in diseased tissues as chemokines have well-known synergistic interactions that cannot be recapitulated when studied individually[8],[11],[55]–[60]. We chose three diseases, atherosclerotic plaque, rheumatoid arthritis, and type 1 diabetes as exemplars, as there is considerable evidence supporting the role of chemokines in their pathology[2]–[4]. To develop disease-relevant chemokine pools, we identified well-characterised bulk RNA-sequencing datasets from atherosclerotic plaque (GSE198600) and rheumatoid arthritis synovium (GSE198520)[61],[62]. […] We analysed chemokine expression levels (in transcripts per million) from these datasets (Supplementary Fig. 6). For each disease we designed a synthetic chemokine pool such that individual chemokine molar concentrations were at ratios determined by the mean relative expression of chemokines in the RNA-sequencing dataset. […] In these experiments we also assessed the effect of EVA4, the parental CC-chemokine binding evasin from which the HD2 series was derived.

Monocytes = assay: Buffy coat monocyte migration induced by disease chemokine pools, inhibition by peptide; type: cell-based, human; conditions: peptide 10 uM; pool at EC50; compared to HD2SCR
Source text: as §3

THP1 cells = assay: THP1 cell migration (Transwell) induced by individual chemokines, inhibition by peptide; type: cell-based, human
Procedure: as §1, §2

[1] = test system: activated CD8+T-cells (ATC); assay: Activated T-cell (ATC) migration induced by individual chemokines, inhibition by peptide; type: cell-based, human; conditions: peptide 10 uM; chemokines at EC80; Dunnett's test
Procedure: Cell lines were confirmed mycoplasma free by monthly testing using a MycoAlert^TM kit (LT07-118, Lonza) following the manufacturer’s instructions. THP1 cells: THP1 cells (ECACC 88081201, a human monocyte leukemia cell line[51]) were obtained from ECACC and were cultured in T175 flasks at 0.3-1 × 10^6 cells/mL in Roswell Park Memorial Institute (RPMI) 1640 medium (R0883, Sigma) with 10% FBS (F9665, Sigma) and 5mM L-glutamine (G7513, Sigma), 37 °C, 5% CO2. J:CXCR1 cells: The J:CXCR1 cell line was cultured in the same manner as THP1 cells at 0.15-1 × 10^6 cells per mL[37]. Activated T-cells: T-cells were isolated, activated and expanded as follows. Briefly, density gradient centrifugation using Lymphoprep^TM density gradient medium (07801, […] Technologies) and a SepMate^TM isolation tube (85450, […] Technologies) was used to isolate peripheral blood mononuclear cells from human leukocyte cones. Two rounds of purification using a human CD8 + T-cell isolation kit (480011, BioLegend) were used to isolate CD8 + T-cells from peripheral blood mononuclear cells. Activation of CD8 + T-cells was performed in ImmunoCult^TM-XF T-cell expansion medium (10982, […] Technologies) with an anti-CD3/anti-CD28 T-cell activator at 25 μl/ml (10991, […] Technologies), supplemented with 10 ng/ml recombinant human IL-2 (200-02, PeproTech) with 1% penicillin/streptomycin. T-cells were passaged every 2–3 days in TexMACS medium (130-097-196, Miltenyi Biotec), supplemented with 10 ng/ml human IL-2 (200-05-250, Peprotech) and incubated at 37 °C in 5% CO2. CD8 + T-cells were frozen at day 10-13 after initial activation, at 20×10^6 cell/ml in TexMACS medium supplemented with 10% DMSO (D2650, Sigma) in liquid nitrogen. Activated CD8^+ T-cells were recovered in TexMACs medium at 0.3 × 10^6 cell/ml and incubated at 37 °C in 5% CO2, 24 h prior to use. For buffy coat experiments a mixture of primary human monocytes, granulocytes and lymphocytes was isolated from human buffy coat. Briefly, RBCs were sedimented in HetaSep (07806, […] Technologies) with 1 mL of HetaSep per 5 mL of blood for 15 min at 37 °C. The buffy coat layer was collected from the top and washed in 50 ml MACS buffer (PBS (P4417, Sigma), 0.5% BSA (A7030, Sigma), 0.075% EDTA (E5134, Sigma), pH 7.2), by centrifugation at 2000 g for 10 min at room temperature. The pellet was resuspended in 10 mL of 1x RBC lysis solution (130-094-183, Miltenyi Biotec) and lysed for 10 min at room temperature. The cells were then washed in MACS buffer twice as above. The final pellet was resuspended in 1 mL of MACS buffer per 5 mL of initial blood volume and counted using cell size FSC-H/SSC-H parameters with gate settings previously defined by immunostaining (see below). The leukocytes were then resuspended in assay buffer for cell migration and used within 30 min of isolation.
Cell counts were determined using an ATTUNE NxT Flow Cytometer with Cytkick autosampler (ThermoFisher), based on cell size parameters FSC-H/SSC-H, with previously defined gate settings. FSC-H/SSC-H gate settings for primary white blood cells from buffy coats were determined using flow cytometry to establish the granulocyte, monocyte and lymphocyte populations (Supplementary Fig. 13). Briefly, cells were labelled with anti-CD3 (Miltenyi Biotec, 130-113-135) to identify the T cell population, anti-CD14 (Miltenyi Biotec, 130-110-578) to identify the monocyte population, and with anti-CD16 (Miltenyi Biotec, 130-113-951) to identify the granulocyte population. Negative control cells were labelled with anti-human IgG1 (Miltenyi Biotec, 130-113-434). All antibodies were allophycocyanin (APC) conjugated. 100,000 white blood cells were added to Eppendorf tubes and centrifuged at 300 g for 3 min. The supernatant was discarded, and the cells resuspended in 98 µL of MACS buffer (1× PBS, 2 mM EDTA and 0.5% BSA, sterile filtered). 2 µl of antibody was added to the cells. […]

[2] = test system: J:CXCR1 cells (Jurkat cells stably transfected with CXCR1); assay: J:CXCR1 cell migration induced by CXCL6, inhibition by peptide; type: cell-based, human; conditions: peptide 10 uM; CXCL6 at EC80; Dunnett's test
Procedure: as §1, with “follows. Briefly, density gradient centrifugation using Lymphoprep^TM density gradient medium (07801, […] Technologies) and a SepMate^TM isolation tube (85450, […] Technologies) was used to isolate peripheral blood mononuclear cells from human leukocyte cones. Two rounds of purification using a human CD8 + T-cell isolation kit (480011, BioLegend) were used to isolate CD8 + T-cells from peripheral blood mononuclear cells. Activation of CD8 + T-cells was performed in ImmunoCult^TM-XF T-cell expansion medium (10982, […] Technologies) with an anti-CD3/anti-CD28 T-cell activator at 25 μl/ml (10991, […] Technologies), supplemented with 10 ng/ml recombinant human IL-2 (200-02, PeproTech) with 1% penicillin/streptomycin.” for “follows.”
as §2

[3] = test system: THP1 cells, activated T-cells (ATC), J:CXCR1 cells; assay: Meta-analysis of individual chemokine-induced cell migration experiments; type: cell-based, human; conditions: seven CC and three CXC chemokines, Dunnett's test
Procedure: Cell migration assays were performed as follows. THP1 cell migration. Briefly, 300000 cells/well were added to the top chamber of a 5-µm 96-well Transwell insert (3387, Corning) in 50 µL of cell migration media (RPMI-1640 (R0883, Sigma), 0.5% FBS (F9665, Sigma), 4mM L-Glutamine (G7513, Sigma), 0.05% DMSO (D4540, Sigma)). The bottom chamber contained 150 µL of migration media with chemokine and peptide. Cells were migrated at 37 °C in 5% CO2 for 4 h. J:CXCR1 cell migration was performed exactly as above using a 3-µm Transwell insert (3385, Corning). Activated T-cell migration. Briefly, 100000 cells/well were added to the top chamber of a 3-µm Transwell insert (3385, Corning) in 50 µL of migration media (HBSS (14025-092, Life Technologies), 0.1% protease free bovine serum albumin (A7030, Sigma), 0.05% DMSO (D4540, Sigma)). The bottom chamber contained 150 µL of migration media with chemokine and peptide. Cells were migrated at 37 °C in 5% CO2 for 2 h. Buffy coat migration. Briefly, a mixture of all cell types at 100000 cells/well were added to the top chamber of a 3-µm Transwell insert (3385, Corning) in 50 µL of migration media (HBSS (14025-092, Life Technologies), 0.1% protease free bovine serum albumin (A7030, Sigma), 0.05% DMSO (D4540, Sigma). The bottom chamber contained 150 µL of migration media with chemokine and peptide. Cells were migrated at 37 °C in 5% CO2 for 2 h. Analysis of cell migration. The migration plate was shaken at 850 RPM for 10 min, and media from bottom plate transferred to a round-bottomed 96 well plate (353910, Falcon). Cells were counted by flow cytometry as described above. Experiments were performed at chemokine EC80 for individual chemotaxis experiments and at EC50 for the pooled chemokine experiments, with three technical replicates, and at least three biological replicates. Statistical significance of differences between control and test groups was evaluated using a two-sided Dunnett’s test with multiple testing correction. Chemokine EC80 or chemokine pool EC50 values were as determined by performing a chemokine dose-response against the cell type and fitting the dose-response curve with a 3-parameter log-logistic model, where the maximal response is fixed at 100% response. […] IC50 was determined by performing inhibitor dose-response experiments and fitting the dose-response curve with a 3-parameter log-logistic model, fixing the bottom of the curve to zero. […] For summary statistics and comparisons, pEC50, pEC80 and pIC50 were calculated as the negative log10 of EC50, EC80 or IC50 expressed in moles/litre.
Sample size and estimated effect sizes were not formally calculated for cell-based or phage-display experiments and no randomization was performed. […]

[4] = lyophilised peptide, data provided by the manufacturer, ref GenScript, cited from earlier work

CXCL6: human chemokine, Peprotech 300-41
Mean pEC50 (J:CXCR1 cells): 7.71 [M]
Mean pEC80 (J:CXCR1 cells): 7.45 [M]

DDDDWDAYAPIWCYFT [HD2CM452, combinatorially mutated HD2 peptide, CM-maxCC group]
inhibition of lymphocyte migration, atherosclerosis pool (Lymphocytes): significant inhibition
inhibition of lymphocyte migration, rheumatoid arthritis pool (Lymphocytes): significant inhibition

DDDDWDDYAPITCYFD [HD2CM539, combinatorially mutated HD2 peptide, CM-max group]
inhibition of monocyte migration, insulitis pool (Monocytes): significant inhibition

DWDDWTAYWDLVCYFD [HD2CM3085, combinatorially mutated HD2 peptide, CM-min group]
inhibition of CCL8 migration compared to the parental peptide (THP1 cells; peptide 0.1 uM, CCL8 at EC80): significantly worse
inhibition of CCL7 migration compared to the parental peptide (THP1 cells; peptide 5 uM, CCL7 at EC80): no differently

EEDDYTAYAPLTCYFC [HD2T16C, HD2 point mutant]
inhibition of CCL19, CCL21, CXCL9, and CXCL11-induced migration of ATCs compared to parental HD2 [1]: significant improvement in inhibition
inhibition of CXCL6-induced migration of J:CXCR1 cells compared to parental HD2 [2]: significant improvement in inhibition
migrated cell count over all chemokines studied, compared to HD2 (meta-analysis) [3]: significant improvement over HD2

EEDDYTAYWPLTCYFT [HD2A9W]
inhibition of CCL19, CCL21, CXCL9, and CXCL11-induced migration of ATCs compared to parental HD2 [1]: significant improvement in inhibition
inhibition of CXCL6-induced migration of J:CXCR1 cells compared to parental HD2 [2]: significant improvement in inhibition
migrated cell count over all chemokines studied, compared to HD2 (meta-analysis) [3]: significant improvement over HD2
Solubility, Water ([4]; C-terminal amide): Insoluble
Solubility, DMSO [4]: Insoluble
Solubility, HCOOH [4]: Soluble
Solubility, PBS [4]: Insoluble
